Laboratory results taken from patent publication US5591773A, “Inhibition of cataract formation, diseases resulting from oxidative stress, and HIV replication by caffeic acid esters” (priority 1994, dated 1997).
“Also recorded” adds a separate entry of the source.

Tests used:
bovine lens (opacity) = experiment: TPA-induced opacity of bovine lens; assay type: cell-based; settings: 0.1 μM TPA, 24 h
Procedure: FIGS. 5A-5C. CAPE-mediated protection of bovine lens from TPA-induced opacity. Lenses were incubated with artificial aqueous humor only (FIG. 5A); incubated with 0.1 μM TPA (FIG. 5B); and pretreated with 1 μM CAPE for 30 min followed by 0.1 μM TPA (FIG. 5C) for 24 h. After incubation, the lenses were photographed against 3-mm grids.
B) Bovine Lens Bovine lenses were obtained from a New Jersey slaughterhouse 3 h after the animals were sacrificed. Lenses were immediately immersed in artificial aqueous humor (AAH; 130 mMNaCl, 5 mMKCl, 1 mM CaCl2, 0.5 mM MgCl2, 10 mM NaHCO3, 10 mM 4-(2-hydroxyethyl)-1-piperazineethanesulfonic acid (pH 7.3), and 2.5 mM D-glucose). Each of the bovine lenses in AAH (about 15 ml/lens) supplemented with 10 mM azide (a catalase inhibitor) was incubated with various amounts (0-1 μM) TPA at 37° C. for 24 h in the presence or absence of CAPE (1 μM), as described for use of other chemopreventive agents (31). For comparison, the lenses were also incubated with glucose (2.5 mM)/glucose oxidase (25 μM), a H2 O2 -generating system.
In some experiments, at the end of incubation [lenses in (a) AAH only (controls), (b) AAH+0.1 μM TPA, and (c) AAH+1 μM CAPE (30 min)+0.1 μM TPA] at 37° C. for 24 h, the lenses were photographed against a 3-mm grid.

[1] = system: TPA-induced edema in SENCAR mouse ears; experiment: TPA-induced ear edema; assay type: in vivo, SENCAR mice
Procedure: FIG. 3. Effect of CAPE on TPA-induced PMN infiltration and edema in SENCAR mouse ears. These were paired experiments, in which both ears of each mouse (8-9/group) were treated with 0.4 nmol TPA±CAPE in 20 μl acetone, and the mice were sacrificed 5 h later. (A) One ear was frozen for subsequent determination of MPO (a measure of PMN infiltration). (B) A punch (6 mm diameter) was taken from the second ear and weighed to measure edematous response (weight of sample minus weight of control). (A) Ears of each group (7-9/group) were separately minced and homogenized under different conditions as described in the "Experimental Details" Section, infra. MPO was determined in duplicate. MPO was undetectable in acetone controls and was 4.13±0.0 units/mg protein and 1.18±0.1 units/mg protein in the 2 homogenates of TPA-only-treated mice. CAPE-mediated inhibition was calculated versus the appropriate TPA-only sample, which was homogenized the same way. (B) Weights of ear punches (8-9/group, each determined separately). Acetone controls, 7.2±0.1 mg; TPA in acetone, 16.7±0.7 mg.
B) Edema Determination. Both ears of SENCAR mice (7-9 mice/group) were treated with 0.4 nmol TPA in 20 μl acetone alone or together with added 0.1 nmol, 0.3 nmol, or […] CAPE. Control mice were treated with acetone. The mice were sacrificed by cervical dislocation 5 h after treatment, and edema was measured on one mouse ear, while the second ear was immediately frozen and later analyzed for PMN infiltration by quantifying myeloperoxidase (MPO) (see below). Ear edema (increased weight of ear punches) was determined as previously described (24). Edema was expressed as mg/6 mm (diameter) ear punch±SE.

[2] = system: 8-OHdGua in epidermal DNA; experiment: TPA-induced 8-OHdGua formation in epidermal DNA of SENCAR mice; assay type: in vivo
Procedure: FIGS. 2A-2D. CAPE-mediated inhibition of TPA-induced oxidative processes in SENCAR mice. Mice were topically treated with 6.5 nmol CAPE 30 min prior to 6.5 nmol TPA, and this regimen was repeated 20 h later. Mice were sacrificed 1 h after the last treatment and the skin removed for determination of: (FIG. 2A) PMN infiltration (by measuring myeloperoxidase (MPO)); (FIG. 2B) H2 O2; (FIG. 2C) HMdUrd (HMdU); and (FIG. 2D) 8-OHdGua (8-OHdG), according to procedures described in the "Experimental Details" Section, infra. .quadrature., controls treated with acetone in place of CAPE and TPA; , treatment with acetone followed by TPA; .box-solid., treatment with CAPE followed by TPA. Results are expressed as mean ± SE (bars) from two experiments (2 mice/experiment) in the CAPE series. Data for acetone (ACT)- and TPA-treated mean values were collected from over 20 experiments.
C) MPO, H2 O2, and Oxidized DNA Bases. SENCAR mice were pretreated with CAPE for 30 min; then 6.5 nmol (4 μg) TPA/mouse topically applied to the dorsal skin. After 20 h, the CAPE and TPA treatment (1x) was repeated (2x treatment). One h after the second treatment, the mice were sacrificed by cervical dislocation, and 12.5-mm punches were obtained to be used separately for MPO and H2 O2 determinations. The remainder of the treated mouse skin or the combined skins from two mice were used for separation of epidermal cells. This was done by heating the skin at 55° C. for 30 s followed by rapid immersion into an ice-cold water bath (45). After the epidermis was scraped off, the presence of oxidized DNA base derivatives was measured in the epidermal DNA. All of these end points were analyzed by published procedures and are briefly described below.
The epidermis was homogenized and lysed, and the proteins and RNA were removed by proteinase K and RNase digestions, respectively (20). The DNA was separated and purified on A.S.A.P. columns (Boehringer-Mannheim Biochemicals) and precipitated with isopropyl alcohol.
The pellet was then washed with 70% ethyl alcohol, dried, and dissolved in 10 mM Tris.cndot.HCl-100 mM NaCl buffer, pH 7.0, according to the manufacturer's procedure. The DNA was sheared and enzymatically digested to nucleosides, and the hydrolysates were separated by HPLC (Beckman, Model 344) on an ODS column (Altex, 1×25 cm; 5 μm particle size) (50). The fractions that eluted after 30 ml were combined (excluding those containing normal nucleosides) and dried. The oxidized nucleosides were detected by ^3 H-postlabeling with [^3 H]acetic anhydride, followed by HPLC analysis of ^3 H-containing acetates in the presence of marker acetates (50). The results are presented as the number of oxidized nucleosides/10^4 normal bases, unless otherwise stated.
^a Mice were treated as described in the legend to FIG. 2, except tha

[3] = CAPE 6.5 nmol, TPA 6.5 nmol, 2x

Structure (SMILES)	prevention of lens opacification (in words) (bovine lens (opacity); 1 μM CAPE)	orders of magnitude higher CAPE dose needed for similar inhibition of edema vs PMN infiltration ([1]; 1 μmol vs 0.1 nmol CAPE/ear)	inhibition of TPA-induced ear edema (in words) ([1]; CAPE 1 μmol/ear, TPA 0.4 nmol/ear)	fold higher CAPE dose required to comparably inhibit ear edema versus PMN infiltration in skin ([1]; relative to 6.5 nmol CAPE, same mouse strain, (76))	8-OHdGua/10^5 bases ([2]; CAPE 6.5 nmol then TPA 6.5 nmol, 2x, (2 experiments), SE 0.8 on next line)	8-OHdGua suppression below acetone controls (basal levels) [2, 3]	decline of 8-OHdGua formation [2, 3]	8-OHdGua/10^5 bases ([2]; CAPE 650 nmol then TPA 6.5 nmol, 2x, (2 experiments), SE 1.1 on next line)	inhibition of inflammatory processes, particularly oxidation of bases in DNA (in words) ([2]; compared with untreated blanks)	lens opacity (in words) (bovine lens (opacity))	weight of ear punches ([1]; TPA 0.4 nmol in acetone, 5 h, 6 mm punch)	8-OHdGua/10^5 bases ([2]; TPA alone, 6.5 nmol, SE 6.3 on next line)
O=C(/C=C/c1ccc(O)c(O)c1)OCCc1ccccc1 [CAPE, Caffeic acid phenethyl ester]	almost completely prevented opacification of the lens; also recorded: suppressed formation of TPA-induced H2 O2 formation and opacification of lenses	4 orders of magnitude	inhibits	> 100 fold	1.4 /10^5 bases	70%	~170%	9.4 /10^5 bases	down to the background levels represented by untreated blanks	–	–	–
CCCCCCCCCCCCCC(=O)O[C@@H]1[C@@H](C)[C@@]2(O)[C@@H](C=C(CO)C[C@]3(O)C(=O)C(C)=C[C@@H]23)[C@@H]2C(C)(C)[C@]12OC(C)=O [TPA, 12-O-tetradecanoylphorbol-13-acetate]	–	–	–	–	–	–	–	–	–	caused opacity of the lens	16.7 ± 0.7 mg	11.8 /10^5 bases
